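Dose response: 5 concentrations. Exposure: 48 h. Format: 96-well plates. Endpoint: linear interpolation; highest concentration if not reached. The concentration for 50% growth inhibition is given as GI50.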 Activity calls are given as the source filed them. Cut-off read from the data, not from the text of the source: active = GI50 up to about 1.1 µM and inactive = higher.
Columns and labels:
Assay in all cases: NCI-60 cell line screen, 48 h
DU-145 = test system: DU-145
SNB-19 = test system: SNB-19
PC-3 = test system: PC-3
SK-MEL-2 = test system: SK-MEL-2
OVCAR-3 = test system: OVCAR-3
T47D = test system: T47D
HCT-15 = test system: HCT-15
UACC-257 = test system: UACC-257
SK-OV-3 = test system: SK-OV-3
A549 = test system: A549
IGROV-1 = test system: IGROV-1
786-0 = test system: 786-0
SK-MEL-5 = test system: SK-MEL-5
SN12C = test system: SN12C
SNB-75 = test system: SNB-75
LOX IMVI = test system: LOX IMVI
Hs-578T = test system: Hs-578T
MOLT-4 = test system: MOLT-4
SR = test system: SR
HL-60 = test system: HL-60

Row | SMILES | GI50 (DU-145) | GI50 (SNB-19) | GI50 (PC-3) | GI50 (SK-MEL-2) | GI50 (OVCAR-3) | GI50 (T47D) | GI50 (HCT-15) | GI50 (UACC-257) | GI50 (SK-OV-3) | GI50 (A549) | GI50 (IGROV-1) | GI50 (786-0) | GI50 (SK-MEL-5) | GI50 (SN12C) | GI50 (SNB-75) | GI50 (LOX IMVI) | GI50 (Hs-578T) | GI50 (MOLT-4) | GI50 (SR) | GI50 (HL-60)
1 | O=C1CSC2(CCN(CCCN3c4ccccc4Sc4ccc(Cl)cc43)CC2)N1 | 11.9 µM (inactive) | 12.1 µM (inactive) | 5.37 µM (inactive) | 16.2 µM (inactive) | 10.4 µM (inactive) | 3.57 µM (inactive) | 6.78 µM | 9.35 µM (inactive) | 9.77 µM (inactive) | 10.1 µM (inactive) | 7.78 µM (inactive) | 11.2 µM (inactive) | 11 µM (inactive) | 10.8 µM (inactive) | 7.43 µM (inactive) | 3.88 µM (inactive) | 10.4 µM (inactive) |  |  | 
2 | CC(C)c1nc2cc(C(F)(F)F)ccc2[nH]c1=O |  | > 100 µM (inactive) | 77.8 µM (inactive) | 62.1 µM (inactive) | 49.9 µM (inactive) | > 100 µM (inactive) | > 100 µM | > 100 µM (inactive) | > 100 µM (inactive) | 53.6 µM (inactive) | > 100 µM (inactive) | 66.7 µM (inactive) | 61.7 µM (inactive) | > 100 µM (inactive) | 34.4 µM (inactive) |  | 3.4 µM (inactive) | 75.3 µM (inactive) | 43.3 µM (inactive) | 54 µM (inactive)
3 | CCOC(=O)c1c(N2CCOCC2)[nH]c(=O)c(C(c2ccc(OC)cc2)c2c(O)c(C(=O)OCC)c(N3CCOCC3)[nH]c2=O)c1O | > 100 µM (inactive) | > 100 µM (inactive) | > 100 µM (inactive) |  | > 100 µM (inactive) | > 100 µM (inactive) | > 100 µM | > 100 µM (inactive) | > 100 µM (inactive) | > 100 µM (inactive) |  | > 100 µM (inactive) | > 100 µM (inactive) | > 100 µM (inactive) | > 100 µM (inactive) | > 100 µM (inactive) | > 100 µM (inactive) | > 100 µM (inactive) | > 100 µM (inactive) | 
4 | CC(C)(/C=N/O)/[N+]([O-])=C/c1ccccc1 | > 100 µM (inactive) | > 100 µM (inactive) | > 100 µM (inactive) | > 100 µM (inactive) | > 100 µM (inactive) | > 100 µM (inactive) | > 100 µM | > 100 µM (inactive) | > 100 µM (inactive) | > 100 µM (inactive) | > 100 µM (inactive) | > 100 µM (inactive) | > 100 µM (inactive) | > 100 µM (inactive) | > 100 µM (inactive) | > 100 µM (inactive) | > 100 µM (inactive) | > 100 µM (inactive) |  | 
5 | Cc1ccc(C2=Nc3c(c(C)nn3-c3ccccc3)N=C(C(=O)O)C2)cc1 | > 10 µM (inactive) | > 10 µM (inactive) | > 10 µM (inactive) | > 10 µM (inactive) | > 10 µM (inactive) | > 10 µM (inactive) | > 10 µM | > 10 µM (inactive) | > 10 µM (inactive) | > 10 µM (inactive) | > 10 µM (inactive) | > 10 µM (inactive) | > 10 µM (inactive) | > 10 µM (inactive) | > 10 µM (inactive) | > 10 µM (inactive) | > 10 µM (inactive) | > 10 µM (inactive) |  | > 10 µM (inactive)
6 | CCOC(=O)[C@@H]1C[C@H]1c1ccc(O)c(O)c1 | 10.1 µM (inactive) | > 100 µM (inactive) | 14.6 µM (inactive) | 18.2 µM (inactive) | 29 µM (inactive) | 30.1 µM (inactive) | 33.6 µM | 19.9 µM (inactive) | 43.1 µM (inactive) | 41.3 µM (inactive) | 24.4 µM (inactive) | 41.4 µM (inactive) | 16.6 µM (inactive) | 75.5 µM (inactive) |  |  | 28.4 µM (inactive) | 18.5 µM (inactive) | 45.3 µM (inactive) | 
7 | Cc1ccc2c(n1)C(=O)c1ccccc1C2=O | 17.3 µM (inactive) | 26.2 µM (inactive) | 23.9 µM (inactive) | 28.8 µM (inactive) | 3.53 µM (inactive) | 30.3 µM (inactive) | 25.8 µM | 19.1 µM (inactive) | 77.4 µM (inactive) | 21.2 µM (inactive) | 24.3 µM (inactive) | 27.6 µM (inactive) | 6.84 µM (inactive) | 26.4 µM (inactive) | 29.8 µM (inactive) | 17.6 µM (inactive) | 72.3 µM (inactive) | 33 µM (inactive) |  | 15.4 µM (inactive)
8 | C(/C=N/N=C1NCCCN1)=N\N=C1NCCCN1 |  | > 100 µM (inactive) | > 100 µM (inactive) |  | > 100 µM (inactive) | > 100 µM (inactive) |  | > 100 µM (inactive) | > 100 µM (inactive) | > 100 µM (inactive) | > 100 µM (inactive) | > 100 µM (inactive) | > 100 µM (inactive) | > 100 µM (inactive) | > 100 µM (inactive) | > 100 µM (inactive) | > 100 µM (inactive) | > 100 µM (inactive) | > 100 µM (inactive) | 

Source: ChEMBL document CHEMBL1201862, “PubChem BioAssay data set” (2004)
